Measurements: patent publication US5798372A, “Method for preventing onset of restenosis after angioplasty employing a retinoid” (Allergan, priority 1997, dated 1998)

Tests used:
[1] = tested on: endothelial cells (canine aorta); experiment: β-FGF-induced endothelial cell proliferation, 3H-thymidine incorporation; assay type: cell-based; settings: Canis lupus familiaris, Table 3, read-out: ED50 FOR ENDOTHELIAL Cells, β-FGF
Method: (§1) The effect of 1% serum on DNA synthesis by endothelial or smooth muscle cells using ^3 H-thymidine incorporation was measured. For measuring the effectiveness of retinoids in inhibiting endothelial or smooth muscle cell proliferation induced by certain mitogens, i.e., serotonin or β-FGF the indicated concentrations were added to the media instead of 1% serum. Primary cells isolated from canine aorta were used for these studies. Unlike the typical cell lines (e.g. NIH 3T3 cells, etc.) 6-7 weeks are required to isolate and grow these primary cells in sufficient number to perform a single experiment. For the following studies, the primary cells (passages 2-4) were plated on 35×10 mm tissue culture dishes in 10% fetal bovine serum (FBS) and incubated. After 72 hours of growth the medias was replaced with 0.1% FBS for synchronization and incubated for additional 72 hours. Then 1% serum was added and incubated for 20 hours followed by the addition of 1μCi of ^3 H-thymidine. Four hours after the addition of 3H-thymidine the DNA was precipitated and the amount of ^3 H-thymidine incorporated was measured. This value is reported as the serum or serotonin or β-FGF stimulated value for cellular proliferation and is expressed as a percentage of baseline ^3 H-thymidine incorporation.
(§2) To examine the antiproliferative effect of retinoids, they were dissolved in 100% ethanol and then added at the indicated final concentrations. The compounds were added at the time of adding 1% serum or serotonin or β-FGF to stimulate the cells. […] After 20 hours of incubation with retinoids and 1% serum or serotonin or β-FGF, the ^3 H-thymidine incorporation was measured.
(§3) Certain of the retinoids were then tested for mitogen-induced cellular proliferation, utilizing serotonin (5HT) and β-FGF as such mitogens. In this testing, as reported in Table 3, below, the same dosages were evaluated for their effect on mitogen-induced cellular proliferation (The results are reported as ED50 and compared to the ED50 for serum-induced smooth muscle and endothelial cell growth).

[2] = tested on: endothelial cells (canine aorta); experiment: Serum (1%)-induced endothelial cell proliferation, 3H-thymidine incorporation; assay type: cell-based; settings: for order of potency for endothelial cells: from Table 2
Method: as §1
(§4) To examine the antiproliferative effect of retinoids, they were dissolved in 100% ethanol and then added at the indicated final concentrations. The compounds were added at the time of adding 1% serum or serotonin or β-FGF to stimulate the cells. (The maximal final concentration of ethanol in culture media was 1% which is non-cytotoxic to endothelial or smooth muscle cells). After 20 hours of incubation with retinoids and 1% serum or serotonin or β-FGF, the ^3 H-thymidine incorporation was measured.
(§5) In this experimental dosages ranging between 0.01 and 100 μM were evaluated for the effect of AGN 191183 on cell growth.
(§6) The other retinoids, disclosed above, were also tested for their effect on smooth muscle and endothelial cell growth at the same dosages as for AGN 191183. Table 2 reports the ED50 for each of these retinoids.

[3] = tested on: smooth muscle cells (canine aorta); experiment: Serotonin-induced smooth muscle cell proliferation, 3H-thymidine incorporation; assay type: cell-based; settings: Canis lupus familiaris, Table 3, read-out: ED50 FOR SMOOTH MUSCLE CELLS, Serotonin
Method: as §1, §2, §3

[4] = tested on: smooth muscle cells (canine aorta); experiment: Serum (1%)-induced smooth muscle cell proliferation, 3H-thymidine incorporation; assay type: cell-based; settings: for IC50: Canis lupus familiaris; for rank order potency on smooth muscle cells: from Table 2
Method: as §1, §4, §5, §6

[5] = tested on: smooth muscle cells (canine aorta); experiment: β-FGF-induced smooth muscle cell proliferation, 3H-thymidine incorporation; assay type: cell-based; settings: Canis lupus familiaris, Table 3, read-out: ED50 FOR SMOOTH MUSCLE CELLS, β-FGF
Method: as §1, §2, §3

[6] = tested on: endothelial cells (canine aorta); experiment: Serotonin-induced endothelial cell proliferation, 3H-thymidine incorporation; assay type: cell-based; settings: Canis lupus familiaris, Table 3, read-out: ED50 FOR ENDOTHELIAL Cells, Serotonin
Method: as §1, §2, §3

RAR and RXR receptor = experiment: RAR vs RXR agonist activity (retinoid selectivity); assay type: biochemical; settings: Table 2; RAR selective agonist preferably has RAR vs RXR activity ratio of at least 5
Description: (Of course, pan agonists show agonist activity at both the RAR and RXR receptor.)
A pan agonist will have activity at both of the RAR and RXR receptor, e.g. similar potency at the RAR and RXR receptor.

[7] = tested on: smooth muscle cells (canine aorta); experiment: Serum (1%)-induced smooth muscle cell proliferation, 3H-thymidine incorporation; assay type: cell-based
[8] = tested on: endothelial cells (canine aorta); experiment: Serum (1%)-induced endothelial cell proliferation, 3H-thymidine incorporation; assay type: cell-based; settings: Canis lupus familiaris, 1% serum, 100% = 1739 ± 71 cpm/10^6 cells, serum stimulated 1246 ± 91, read-out: % ENDOTHELIAL (cell growth, % of baseline 3H-thymidine incorporation)
[9] = serum induced, Table 3, read-out: ED50 FOR SMOOTH MUSCLE CELLS, Serum
[10] = Canis lupus familiaris, Endothelial cell, serum induced, Table 2, read-out: ED50 FOR ENDOTHELIAL CELL (concentration at which proliferation is inhibited by 50%)
[11] = serum induced, Table 2, read-out: ED50 FOR SMOOTH MUSCLE CELLS (concentration at which proliferation is inhibited by 50%)
[12] = Canis lupus familiaris, Endothelial cell, read-out: ED50 FOR ENDOTHELIAL CELL (concentration at which proliferation is inhibited by 50%)
[13] = read-out: ED50 FOR SMOOTH MUSCLE CELLS (concentration at which proliferation is inhibited by 50%)

SMILES: CC1=C(/C=C/C(C)=C/C=C/C(C)=C\C(=O)O)C(C)(C)CCC1 [AGN 190013, (2Z,4E,6E,8E)-3,7-dimethyl-9-(2,6,6-trimethyl-1-cyclohexen-1-yl)-2,4,6,8-nonatetraenoic acid]
- IC50 [1]: 0.009 µM
- IC50 ([2]; Canis lupus familiaris, Endothelial cell, serum induced, Table 3, read-out: ED50 FOR ENDOTHELIAL Cells, Serum): 31.5 µM
- IC50 [3]: 5 µM
- IC50 [4, 9]: 7.4 µM
- IC50 [5]: > 100 µM
- IC50 [6]: 0.0092 µM

SMILES: CC1=C(/C=C/C(C)=C\C=C\C(C)=C\C(=O)O)C(C)(C)CCC1 [AGN 192013, (2E,4E,6Z,8E)-3,7-dimethyl-9-(2,6,6-trimethyl-1-cyclohexen-1-yl)-2,4,6,8-nonatetraenoic acid, reference compound]
- IC50 [1]: 26.5 µM
- IC50 [2, 10]: 2.25 µM
- order of potency for endothelial cells ([2]; serum induced): AGN 192013>AGN 190205=AGN 191183
- IC50 [3]: 0.41 µM
- IC50 [4, 11]: > 100 µM
- IC50 [4, 9]: > 100 µM
- IC50 [5]: > 100 µM
- IC50 [6]: 0.16 µM

SMILES: CC(C)(C)c1ccc(C#Cc2ccc(C(=O)O)cc2)cc1OC1CCCCO1 (stereo not shown) [AGN 192326, 4-[2-(3-(2-tetrahydropyranyl)oxy)-(4-(1,1-dimethylethyl)phenyl)ethynyl]benzoic acid]
- IC50 [2, 10]: 16.5 µM
- IC50 [4, 11]: 6.5 µM
- rank order potency on smooth muscle cells ([4]; serum induced): AGN 191659=191183>AGN 192327>AGN 191985>AGN 192326
- SELECTIVITY (RAR and RXR receptor): RAR

SMILES: CC1=C(/C=C/C#Cc2ccc(C(=O)O)cc2)C(C)(C)CCC1 [AGN 190121, (E)-4-[4-(2,6,6-trimethyl-1-cyclohexen-1-yl)but-2-en-1-ynyl] benzoic acid]
- IC50 [2, 10]: 23 µM
- IC50 [4, 11]: 46 µM
- SELECTIVITY (RAR and RXR receptor): RAR

SMILES: CC(C)(C)c1ccc(C#Cc2ccc(C(=O)O)cn2)cc1OC1CCCCO1 (stereo not shown) [AGN 192327, 6-[2-(3-(2-tetrahydropyranyl)oxy)-(4-(1,1-dimethylethyl)phenyl)ethynyl]-3-nicotinic acid]
- IC50 [2, 10]: 29 µM
- IC50 [4, 11]: 4 µM
- rank order potency on smooth muscle cells ([4]; serum induced): AGN 191659=191183>AGN 192327>AGN 191985>AGN 192326
- SELECTIVITY (RAR and RXR receptor): RAR

SMILES: C/C(=C\c1cc(C(=O)O)cs1)c1cc2c(cc1C)C(C)(C)CCC2(C)C [AGN 191701, reference compound]
- IC50 ([2]; serum induced, Table 2, read-out: ED50 FOR ENDOTHELIAL CELL (concentration at which proliferation is inhibited by 50%)): 28.5 µM
- IC50 [7, 11]: 18 µM
- SELECTIVITY (RAR and RXR receptor): RXR

SMILES: C/C(=C\c1ccc(C(=O)O)cc1)c1ccc2c(c1)C(C)(C)CCC2(C)C [AGN 191183, (E)-4-[2-(5,6,7,8-tetrahydro-5,5,8,8-tetramethyl-2-naphthalenyl)-1-propen-1-yl] benzoic acid]
- activity at 0.1 µM ([8]; 0.1 μM): 959 ± 115%
- activity at 0.5 µM ([8]; 0.5 μM): 840 ± 108%
- activity at 1 µM ([8]; 1 μM): 815 ± 171%
- activity at 5 µM ([8]; 5 μM): 686 ± 40%
- activity at 10 µM ([8]; 10 μM): 406 ± 32%
- activity at 50 µM ([8]; 50 μM): 17 ± 2%
- activity at 100 µM ([8]; 100 μM): 9.3 ± 2.3%
- IC50 [2, 12]: 6.15 µM
- order of potency for endothelial cells ([2]; serum induced): AGN 192013>AGN 190205=AGN 191183
- IC50 [4, 13]: 0.03 µM
- rank order potency on smooth muscle cells ([4]; serum induced): AGN 191659=191183>AGN 192327>AGN 191985>AGN 192326
- effectiveness for inhibiting the growth of smooth muscle and endothelial cells ([4]; smooth muscle and endothelial cells (also A2), serum induced): most effective retinoid for inhibiting the growth of both smooth muscle and endothelial cells
- activity at 0.01 µM ([7]; Canis lupus familiaris, 0.01 μM, 1% serum, 100% = 2108 ± 165 cpm/10^6 cells, serum stimulated 725 ± 170, read-out: % SMOOTH MUSCLE (cell growth, % of baseline 3H-thymidine incorporation)): 376 ± 17%
- activity at 0.05 µM ([7]; Canis lupus familiaris, 0.05 μM, 1% serum, 100% = 2108 ± 165 cpm/10^6 cells, serum stimulated 725 ± 170, read-out: % SMOOTH MUSCLE (cell growth, % of baseline 3H-thymidine incorporation)): 348 ± 95%
- activity at 0.1 µM ([7]; Canis lupus familiaris, 0.1 μM, 1% serum, 100% = 2108 ± 165 cpm/10^6 cells, serum stimulated 725 ± 170, read-out: % SMOOTH MUSCLE (cell growth, % of baseline 3H-thymidine incorporation)): 219 ± 22%
- activity at 0.5 µM ([7]; Canis lupus familiaris, 0.5 μM, 1% serum, 100% = 2108 ± 165 cpm/10^6 cells, serum stimulated 725 ± 170, read-out: % SMOOTH MUSCLE (cell growth, % of baseline 3H-thymidine incorporation)): 205 ± 17%
- activity at 1 µM ([7]; Canis lupus familiaris, 1 μM, 1% serum, 100% = 2108 ± 165 cpm/10^6 cells, serum stimulated 725 ± 170, read-out: % SMOOTH MUSCLE (cell growth, % of baseline 3H-thymidine incorporation)): 185 ± 10%
- activity at 5 µM ([7]; Canis lupus familiaris, 5 μM, 1% serum, 100% = 2108 ± 165 cpm/10^6 cells, serum stimulated 725 ± 170, read-out: % SMOOTH MUSCLE (cell growth, % of baseline 3H-thymidine incorporation)): 182 ± 3%
- activity at 10 µM ([7]; Canis lupus familiaris, 10 μM, 1% serum, 100% = 2108 ± 165 cpm/10^6 cells, serum stimulated 725 ± 170, read-out: % SMOOTH MUSCLE (cell growth, % of baseline 3H-thymidine incorporation)): 126 ± 18%
- activity at 50 µM ([7]; Canis lupus familiaris, 50 μM, 1% serum, 100% = 2108 ± 165 cpm/10^6 cells, serum stimulated 725 ± 170, read-out: % SMOOTH MUSCLE (cell growth, % of baseline 3H-thymidine incorporation)): 137 ± 25%
- activity at 100 µM ([7]; Canis lupus familiaris, 100 μM, 1% serum, 100% = 2108 ± 165 cpm/10^6 cells, serum stimulated 725 ± 170, read-out: % SMOOTH MUSCLE (cell growth, % of baseline 3H-thymidine incorporation)): 77 ± 28%
- SELECTIVITY (RAR and RXR receptor): RAR

SMILES: C/C(=C\c1ccc(C(=O)O)s1)c1cc2c(cc1C)C(C)(C)CCC2(C)C [AGN 191659, (E)-5-[2-(5,6,7,8-tetrahydro-3,5,5,8,8-pentamethyl-2-naphthalenyl)-1-propen-1-yl] thiophene-2-carboxylic acid]
- IC50 [2, 10]: 39 µM
- IC50 [4, 11]: 0.038 µM
- rank order potency on smooth muscle cells ([4]; serum induced): AGN 191659=191183>AGN 192327>AGN 191985>AGN 192326
- SELECTIVITY (RAR and RXR receptor): PAN AGONIST

SMILES: CC1(C)CCC(C)(C)c2cc(C#Cc3ccc(C(=O)O)cc3)ccc21 [AGN 190205, 4-[2-(5,6,7,8-tetrahydro-5,5,8,8-tetramethyl-2-naphthalenyl)ethynyl] benzoic acid]
- IC50 [2, 12]: 6.8 µM
- order of potency for endothelial cells ([2]; serum induced): AGN 192013>AGN 190205=AGN 191183
- IC50 [4, 13]: 8.95 µM
- SELECTIVITY (RAR and RXR receptor): RAR
